Experiments:
[1] = test system: lipase (reference L3126 from Sigma); test: Hydrolysis of ascorbyl palmitate by lipase with or without blue light radiation (palmitic acid released); type: biochemical; settings: for Test - Control % of variation versus control: light 400-510 nm vs no light; for Test (in ppm palmitic acid released in reaction medium) / Control (in ppm palmitic acid released in reaction medium): lipase + ascorbyl palmitate; for Test (in ppm palmitic acid released in reaction medium): light 400-510 nm; for Control (in ppm palmitic acid released in reaction medium): no light exposure
Experimental: The lipase (reference L3126 from Sigma) is exposed with stirring to a light radiation with a predominant wavelength of 400-510 nm (FIG. 2: spectrum of blue light used, intensity 0.5 mW/cm^2) in the presence of ethyl lactate (from Sigma or Fluka) according to the set-up described in FIG. 1. The same protocol as that described in Example 1 is carried out, with the replacement of ethyl lactate by ascorbyl palmitate. In the presence of lipase, the ascorbyl palmitate hydrolyses to give palmitic acid and ascorbic acid. The lipase is exposed with stirring to the said radiation with a predominant wavelength ranging from 400 to 510 nm (blue spectrum) in the presence of ascorbyl palmitate. An increase in the hydrolysis proportional to the time of exposure of the lipase to the said radiation is found, as presented in the following table: […]

[2] = test system: lipase (reference L3126 from Sigma); test: Hydrolysis of ethyl lactate by lipase with or without blue light radiation (lactic acid formed is determined); type: biochemical; settings: for Test - Control % of variation versus control: light 400-510 nm vs no light; for Test (ppm lactic acid in reaction medium) / Control (ppm lactic acid in reaction medium): lipase + ethyl lactate; for Test (ppm lactic acid in reaction medium): light 400-510 nm; for Control (ppm lactic acid in reaction medium): no light exposure
Description: In the presence of lipase, ethyl lactate is hydrolysed to give L-lactate (which reacts with water to give lactic acid) and ethanol. The lactic acid thus formed is quantitatively determined.
The lipase (reference L3126 from Sigma) is exposed with stirring to a light radiation with a predominant wavelength of 400-510 nm (FIG. 2: spectrum of blue light used, intensity 0.5 mW/cm^2) in the presence of ethyl lactate (from Sigma or Fluka) according to the set-up described in FIG. 1.
The control corresponds to bringing together the lipase and the ethyl lactate under the same conditions, without exposure to the said light radiation. An increase in the hydrolysis of the ethyl lactate, with respect to the control, is found.

In the case of `CCCCCCCCCCCCCCCC(=O)OC[C@H](O)[C@H]1OC(=O)C(O)=C1O` [ascorbyl palmitate], the “Test - Control % of variation versus control” value (from here on “Test - Control %”) ([1]; reaction time 20 min) is reported as 1.71%, the “Test - Control %” value ([1]; reaction time 40 min) is reported as 2.95% and the “Test - Control %” value ([1]; reaction time 60 min) is reported as 9.92%. For the same compound, the “Test - Control %” value ([1]; reaction time 90 min) was 11.72%, the “Test (in ppm palmitic acid released in reaction medium)” value ([1]; reaction time 20 min) was 63.96 ppm and the “Test (in ppm palmitic acid released in reaction medium)” value ([1]; reaction time 40 min) was 77.15 ppm. The “Test (in ppm palmitic acid released in reaction medium)” value ([1]; reaction time 60 min) was 98.99 ppm, the “Test (in ppm palmitic acid released in reaction medium)” value ([1]; reaction time 90 min) was 119.51 ppm and the “Control (in ppm palmitic acid released in reaction medium)” value ([1]; reaction time 20 min) was 62.89 ppm. The “Control (in ppm palmitic acid released in reaction medium)” value ([1]; reaction time 40 min) was 74.87 ppm, the “Control (in ppm palmitic acid released in reaction medium)” value ([1]; reaction time 60 min) was 89.16 ppm and the “Control (in ppm palmitic acid released in reaction medium)” value ([1]; reaction time 90 min) was 105.5 ppm.

With `CCOC(=O)C(C)O` (stereo not drawn) [ethyl lactate] the “Test - Control %” value ([2]; reaction time 20 min) was 5.16%, the “Test - Control %” value ([2]; reaction time 40 min) was 9.08% and the “Test - Control %” value ([2]; reaction time 90 min) was 17.94%. For the same compound, the “Test (ppm lactic acid in reaction medium)” value ([2]; 0.5 mW/cm^2, reaction time 20 min) was 0.48 ppm, the “Test (ppm lactic acid in reaction medium)” value ([2]; 0.5 mW/cm^2, reaction time 40 min) was 0.69 ppm and the “Test (ppm lactic acid in reaction medium)” value ([2]; 0.5 mW/cm^2, reaction time 90 min) was 0.84 ppm. The “Control (ppm lactic acid in reaction medium)” value ([2]; reaction time 20 min) was 0.45 ppm, the “Control (ppm lactic acid in reaction medium)” value ([2]; reaction time 40 min) was 0.62 ppm and the “Control (ppm lactic acid in reaction medium)” value ([2]; reaction time 90 min) was 0.69 ppm.

From patent US20110130704A1, “COMBINATION OF A LIGHT RAY AND A LIPASE-BIOCONVERTIBLE COMPOUND FOR IMPROVING SKIN AND/OR HAIR APPEARANCE” (L'OREAL, priority 2008, published 2011)
